According to patent US8901305B2, “Aryl lactam kinase inhibitors” (Bristol-Myers Squibb Company, priority 2012, dated 2014):

Experiments:
[1] = target: T1, AAK1 (full length human) with AP2M1 in HEK293F cells (Homo sapiens, UniProt Q2M2I8); test: HEK281 cell-based assay (phospho-mu2 Western blot in transfected HEK293F cells); conditions: 3 hours, inhibition of mu2 phosphorylation
T1 construct: expressed in transfected cells; host or cells: HEK293F
Description: HEK293F cells were cultured in media containing DMEM (Gibco, cat. #11965), 10% FBS (SAFC Biosciences, cat. #12103C), 1×GPS (glutamine, penicillin and streptomycin). On day one, cells were plated on a 10 cm dish so that they are ˜80% confluent at time of transfection. Roughly 12 million cells were in a 10 cm dish at time of transfection. On day two, each dish was transfected with 48 ug DNA and 144 ul Lipofectamine 2000 (Invitrogen, cat. #11668-019). The DNA was comprised of a mixture (per 10 cm dish) containing 3 ug AAK1/HA/pIRES (full length human, NCBI accession no. NP_055726.2), 45 μg Flag/AP2MI/pcDNA (full length human), and 1.5 ml OPTI-MEM. The Lipofectamine 2000 is made up of a mixture (per 10 cm dish) containing 144 μl Lipofectamine 2000 and 1.5 ml OPTI-MEM. Each mixture was transferred to individual 15 ml tubes and incubated at RT for 5 minutes, and then the two mixes were combined and incubated at RT for 20 minutes. Growth media was then aspirated from each 10 cm plate and replaced with 10 ml of DMEM+10% FBS (no GPS). Finally, 3 ml DNA/Lipofectamine mix was added to each 10 cm dish and mix gently followed by incubate of plate overnight at 37° C. and 5% CO2.
On day three, compounds were diluted in 100% DMSO at 1000× final concentration, followed by 3-fold serial dilutions for a total of 5 concentrations tested. Four compounds were tested per 10 cm dish. One ul of each compound dilution was then pipetted into a deep-well, 96-well plate, followed by addition of 500 μl DMEM+0.5% FBS into each well for a 2× final concentration of each compound. Cells were resuspended in a 10 cm dish by simple pipetting (HEK293 cells come off the plate that easy at this point) and then transferred to a 50 ml conical tube and pelleted by centrifugation at 1000 rpm for 5 min. Cell pellets were then resuspended in 2.75 ml DMEM+0.5% FBS per 10 cm dish and 100 μl of cell suspension transferred into each well of 96-well TC plate. Finally, 100 μl of 2× compound diluted in DMEM+0.5% FBS was then added into wells containing cell suspension for a 1× final concentration. Plates were then incubated at 37° C. and 5% CO2 for 3 hours followed by transferring of cell suspensions from each well into 12-tube PCR strips. The PCR strips were spun in a tip rack at 1000 rpm for 5 minutes to pellet cells and media was then removed by pipetting without disturbing the cell pellet.
To prepare for Western Blot analysis, cell pellets were resuspend in 40 ul 1×LDS-PAGE sample buffer (Invitrogen, cat. # NP0008)+2× Halt phosphatase and protease inhibitor cocktail (Thermo Scientific, cat. #1861284), followed by sonicating each with microtip sonicator set at 5 for 8-10 seconds. Five ul of 10× NuPage Sample Reducing Agent (with […]) was to each sample followed by heat denaturing at 70 C for 10 min on PCR machine. A total of 10 μl per sample was loaded into each lane of a 4-20% Tris-Glycine Criterion 26-well gel (Biorad, cat. #345-0034) for the phospho-mu2 blot and 10 μl per lane in a 4-12% Bis-Tris (+MES buffer) NuPAGE 26-well gel (Invitrogen, cat. # WG1403BX10) for the mu2 blot. For controls, 2 ng of phospho-mu2 or 20 ng mu2/Flag proteins were loaded in the last well of each gel. After SDS-PAGE, samples on each gel were transferred to PVDF membrane using an iBlot and membranes were blocked for one hour in TBST+5% milk, followed by wash 3× for 5-10 min with TBST. Criterion gels were probed with rabbit anti-phospho-mu2 (1:5000; a rabbit polyclonal antibody produced by New England Peptide and affinity purified at Lexicon) in TBST+5% BSA, whereas, NuPAGE gels were probed with mouse anti-Flag (1:500; Sigma, cat. # F1804) in TBST+5% milk, and these primary antibodies were incubated overnight at 4° C. on a rocker. […]

GST-Xa-hAAK1 = target: T2, GST-Xa-hAAK1 (Homo sapiens, UniProt Q2M2I8); test: AAK1 kinase assay; assay type: biochemical; conditions: ATP 22 μM, 3 hours at room temperature
T2 construct: made in house
T2 sequence (Q2M2I8 whole entry): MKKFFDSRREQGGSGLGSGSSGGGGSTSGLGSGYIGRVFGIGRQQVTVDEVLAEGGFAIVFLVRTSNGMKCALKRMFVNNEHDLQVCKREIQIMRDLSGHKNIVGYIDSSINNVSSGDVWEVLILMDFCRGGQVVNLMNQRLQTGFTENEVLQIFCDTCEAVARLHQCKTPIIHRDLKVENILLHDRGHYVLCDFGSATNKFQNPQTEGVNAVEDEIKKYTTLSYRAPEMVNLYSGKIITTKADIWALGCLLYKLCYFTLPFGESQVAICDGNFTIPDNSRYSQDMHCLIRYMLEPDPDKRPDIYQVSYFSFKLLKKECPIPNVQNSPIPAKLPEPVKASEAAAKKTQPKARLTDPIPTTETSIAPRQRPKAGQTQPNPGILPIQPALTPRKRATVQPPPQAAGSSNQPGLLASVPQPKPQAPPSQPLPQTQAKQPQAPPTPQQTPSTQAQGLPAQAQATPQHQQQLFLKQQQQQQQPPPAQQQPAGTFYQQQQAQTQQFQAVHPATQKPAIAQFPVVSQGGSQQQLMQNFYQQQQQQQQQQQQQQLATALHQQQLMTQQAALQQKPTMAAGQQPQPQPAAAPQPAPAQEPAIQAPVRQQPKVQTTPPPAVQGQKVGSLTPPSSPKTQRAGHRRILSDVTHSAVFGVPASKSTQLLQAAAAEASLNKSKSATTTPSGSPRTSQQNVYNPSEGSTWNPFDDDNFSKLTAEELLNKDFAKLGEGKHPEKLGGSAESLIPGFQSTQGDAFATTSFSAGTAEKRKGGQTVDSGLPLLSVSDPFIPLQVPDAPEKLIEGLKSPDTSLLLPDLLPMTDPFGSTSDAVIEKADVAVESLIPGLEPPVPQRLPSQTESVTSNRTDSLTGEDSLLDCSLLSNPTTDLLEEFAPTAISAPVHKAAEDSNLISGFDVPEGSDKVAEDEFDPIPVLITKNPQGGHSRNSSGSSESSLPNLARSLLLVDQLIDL
Summary of the method: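 Bacterially expressed GST-Xa-hAAK1 was combined with substrates and compounds (eleven concentrations) and incubated 3 h at room temperature, then stopped with EDTA. Fluorescent substrate and phosphorylated product were separated electrophoretically (Caliper LabChip), and IC50 values came from non-linear regression.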

T1 sequence (Q2M2I8 whole entry): as above

| IC50 ([1]; given as IC50 range) [nM] | IC50 (GST-Xa-hAAK1; given as IC50 range) [nM] | IC50 (GST-Xa-hAAK1) [nM] | IC50 [1] [nM] | SMILES |
| --- | --- | --- | --- | --- |
| 10 to 100 | 1 to 10 |  |  | CC(C)CC(C)(N)COc1ccc2c3ccncc3c(=O)n(C)c2c1 (single isomer, unassigned) [Example 59, 8-((2-amino-2,4-dimethylpentyl)oxy)-6-methylbenzo[c][2,7]naphthyridin-5(6H)-one] |
| 1 to 10 |  | 0.12 |  | Cc1nccc2c1c(=O)n(C)c1cc(OC[C@@H](N)CC3CC3)c(Cl)cc21 [Example 23, (S)-8-(2-amino-3-cyclopropylpropoxy)-9-chloro-4,6-dimethylbenzo[c][2,7]naphthyridin-5(6H)-one] |
|  |  | 2.7 | 1.6 | CC(C)C[C@H](N)COc1cc2c(cc1Br)c1ccncc1c(=O)n2C [Example 3, (S)-8-((2-amino-4-methylpentyl)oxy)-9-bromo-6-methylbenzo[c][2,7]naphthyridin-5(6H)-one] |
| 1 to 10 | 1 to 10 |  |  | Cc1nccc2c1c(=O)n(C)c1cc(OCC(N)CCC(F)(F)F)c(C#N)cc21 (centres unmarked) [Example 73, 8-(2-amino-5,5,5-trifluoropentyloxy)-4,6-dimethyl-5-oxo-5,6-dihydrobenzo[c][2,7]naphthyridine-9-carbonitrile] |
|  |  | 0.64 | 3.3 | Cc1nccc2c1c(=O)n(C)c1cc(OCC(C)(N)CC(C)C)c(Cl)cc21 (centres unmarked) [Example 41, 8-((2-amino-2,4-dimethylpentyl)oxy)-9-chloro-4,6-dimethylbenzo[c][2,7]naphthyridin-5(6H)-one] |
|  | 1 to 10 |  | 1.8 | CC(C)C[C@H](N)COc1cc2c(cc1-c1cnco1)c1ccncc1c(=O)n2C [Example 48, (S)-8-(2-amino-4-methylpentyloxy)-6-methyl-9-(oxazol-5-yl)benzo[c][2,7]naphthyridin-5(6H)-one] |
| 10 to 100 | 1 to 10 |  |  | Cc1nccc2c1c(=O)n(C)c1cc(OC[C@@H](N)CC(C)C(F)(F)F)ccc21 (single isomer, unassigned) [Example 88] |
| 1 to 10 | 1 to 10 |  |  | Cc1nccc2c1c(=O)n(C)c1cc(OC[C@@H](N)CC3CCC3)c(Cl)cc21 [Example 24, (S)-8-(2-amino-3-cyclobutylpropoxy)-9-chloro-4,6-dimethylbenzo[c][2,7]naphthyridin-5(6H)-one] |
| 1 to 10 | 1 to 10 |  |  | Cc1nccc2c1c(=O)n(C)c1cc(OC[C@H](N)CC(C)C)c(Cl)cc21 [Example 20, (R)-8-((2-amino-4-methylpentyl)oxy)-9-chloro-4,6-dimethylbenzo[c][2,7]naphthyridin-5(6H)-one] |
|  | 10 to 100 |  | 11 | Cc1nccc2c1c(=O)n(C)c1cc(OC(C)[C@@H](N)CC(C)C)ccc21 (mixture of isomers) [Example 33, 8-(((2S,3S)-3-amino-5-methylhexan-2-yl)oxy)-4,6 dimethylbenzo[c][2,7]naphthyridin-5(6H)-one] |
| 1 to 10 | 1 to 10 |  |  | Cc1nccc2c1c(=O)n(C)c1cc(OC[C@@H](N)CC(C)C)c(F)cc21 [Example 70, (S)-8-(2-amino-4-methylpentyloxy)-9-fluoro-4,6-dimethylbenzo[c][2,7]naphthyridin-5(6H)-one] |
| 10 to 100 |  | 3.9 |  | Cc1nccc2c1c(=O)n(C)c1cc(OC[C@](C)(N)CC(C)C)ccc21 (single isomer, unassigned) [Example 37] |
| < 1 | < 1 |  |  | Cc1nccc2c1c(=O)n(C)c1cc(OC[C@@H](N)CC=C(F)F)c(C#N)cc21 [Example 106, (S)-8-((2-amino-5,5-difluoropent-4-en-1-yl)oxy)-4,6-dimethyl-5-oxo-5,6-dihydrobenzo[c][2,7]naphthyridine-9-carbonitrile] |
| 1 to 10 | 1 to 10 |  |  | Cc1nccc2c1c(=O)n(C)c1cc(OC[C@@H](N)CC(C)C)c(C(F)(F)F)cc21 [Example 75, (S)-8-(2-amino-4-methylpentyloxy)-4,6-dimethyl-9-(trifluoromethyl)benzo[c][2,7]naphthyridin-5(6H)-one] |
| 1 to 10 |  | 0.55 |  | Cc1cc2c3ccnc(C)c3c(=O)n(C)c2cc1OC[C@@H](N)CC1CC1 [Example 25, (S)-8-(2-amino-3-cyclopropylpropoxy)-4,6,9-trimethylbenzo[c][2,7]naphthyridin-5(6H)-one] |
| 1 to 10 | 1 to 10 |  |  | Cn1c(=O)c2cnccc2c2cc(C#N)c(OCC(N)CCC(F)(F)F)cc21 (centres unmarked) [Example 56, 8-((2-amino-5,5,5-trifluoropentyl)oxy)-6-methyl-5-oxo-5,6 dihydrobenzo[c][2,7]naphthyridine-9-carbonitrile] |
|  | 1 to 10 |  | 3.1 | CCc1cc2c3ccncc3c(=O)n(C)c2cc1OC[C@@H](N)CC(C)C [Example 46, (S)-8-(2-amino-4-methylpentyloxy)-9-ethyl-6-methylbenzo[c][2,7]naphthyridin-5(6H)-one] |
| 10 to 100 |  | 11 |  | CC(C)CC(C)(N)COc1ccc2c3ccncc3c(=O)n(C)c2c1 (single isomer, unassigned) [Example 58, 8-((2-amino-2,4-dimethylpentyl)oxy)-6-methylbenzo[c][2,7]naphthyridin-5(6H)-one] |
| 1 to 10 | 1 to 10 |  |  | Cc1cc2c3ccnc(C)c3c(=O)n(C)c2cc1OC[C@@H](N)CC(C)C [Example 63, (S)-8-(2-amino-4-methylpentyloxy)-4,6,9-trimethylbenzo[c][2,7]naphthyridin-5(6H)-one] |
| 1 to 10 |  | 0.8 |  | Cc1nccc2c1c(=O)n(C)c1cc(OC[C@H](N)CC(C)C)c(C#N)cc21 [Example 78, (R)-8-(2-amino-4-methylpentyloxy)-4,6-dimethyl-5-oxo-5,6-dihydrobenzo[c][2,7]naphthyridine-9-carbonitrile] |

| SMILES | IC50 ([1]; given as IC50 range) [nM] | IC50 (GST-Xa-hAAK1; given as IC50 range) [nM] | IC50 (GST-Xa-hAAK1) [nM] | IC50 [1] [nM] |
| --- | --- | --- | --- | --- |
| CC(C)C[C@H](N)COc1ccc2c(c1)[nH]c(=O)c1cnccc12 [Example 1, (S)-8-(2-amino-4-methylpentyloxy)benzo[c][2,7]naphthyridin-5(6H)-one] |  |  | 5.7 | 14 |
| Cc1nccc2c1c(=O)n(C)c1cc(OC[C@@H](N)CC(C)C)c(C#N)cc21 [Example 64, (S)-8-(2-amino-4-methylpentyloxy)-4,6-dimethyl-5-oxo-5,6-dihydrobenzo[c][2,7]naphthyridine-9-carbonitrile] |  | < 1 |  | 0.6 |
